Source: patent US20080220103A1, “METHOD FOR TREATING/CONTROLLING/KILLING FUNGI AND BACTERIA ON LIVING ANIMALS” (priority 2005, published 2008)
In brackets after ≈: the same amount, converted by molar mass. Like-named read-outs stand apart in the source and are kept apart here.

Experiments:
T. mentagrophytes = experiment: MIC, modified CLSI M38A broth dilution; type: cell-based, Trichophyton mentagrophytes; settings: for MIC: Trichophyton mentagrophytes
Procedure: (§1) Minimum Inhibitory Concentration (MIC): Minimum inhibitory concentrations of synthetic and semisynthetic and natural products against dermatophytes were determined using a modification of the Clinical Laboratory Standards Institute (CLSI, formerly National Committee of Clinical Laboratory Standards, NCCLS) M38A standard method for dermatophytes, while MIC of these agents against Candida species were determined using the CLSI M27-A2 methodology. The method used to determine the MIC against bacteria was based on the CLSI document M7-A7.
(§2) For dermatophytes, serial dilutions of terbinafine, tolnaftate were prepared in a range of 0.004-2 μg/ml, while for miconazole concentrations ranged between 0.015-8 μg/ml. Finally, for essential oils, the concentrations tested were between 0.03-16 μg/ml. The only exception was tea tree oil where dilutions were prepared in a range of 0.0078-4 μg/ml. The MIC was read at 4 days post inoculation and defined as the lowest concentration of an agent to inhibit 80% of fungal growth as compared to the growth control (Table 2).

S. aureus = experiment: MIC, CLSI M7-A7, Mueller-Hinton; type: cell-based, Staphylococcus aureus
Procedure: as §1
(§3) For bacterial species, the medium used to evaluate the antibacterial activity of agents and essential oils was Mueller-Hinton (Oxoid Ltd., Basingstoke, Hampshire, England). Serial dilutions of miconazole, terbinafine, and tolnaftate were prepared in a range of 0.125-64 μg/ml and serial dilutions of tea tree oil were prepared in a range of 0.0078-4 μg/ml, while those for the rest of the essential oils were prepared in a range 0.031-16 μg/ml.

E. floccosum [1] = experiment: MIC, modified CLSI M38A broth dilution; type: cell-based, Epidermophyton floccosum
Procedure: as §1, §2

[2] = test system: All bacteria (Staphylococcus species); experiment: MIC, CLSI M7-A7, pooled bacteria; type: cell-based, S. aureus, S. epidermidis; settings: n = 12
Procedure: as §1, §3
(§4) In the following Tables, MIC50 and MIC90 are defined as the minimal concentrations of a compound that can inhibit 50% and 90% of the tested organisms, respectively.

T. rubrum = experiment: MIC, modified CLSI M38A broth dilution; type: cell-based, Trichophyton rubrum
Procedure: as §1, §2

All dermatophytes [3] = experiment: MIC, modified CLSI M38A, pooled dermatophytes; type: cell-based, E. floccosum, T. rubrum, T. mentagrophytes; settings: n = 18
Procedure: as §1, §2, §4

All yeasts = experiment: MIC, CLSI M27-A2, pooled yeasts; type: cell-based, C. albicans, C. parapsilosis; settings: n = 12
Procedure: as §1
(§5) The remaining essential oils were prepared in a dilution range of 0.03-16 μg/ml. For Candida the MIC was read at 24 hours and defined as the lowest concentration to inhibit 50% of fungal growth as compared to the growth control (Table 4).
as §4

C. parapsilosis = experiment: MIC, CLSI M27-A2; type: cell-based, Candida parapsilosis; settings: Lodderomyces parapsilosis
Procedure: as §1, §5

All dermatophytes [4] = experiment: Minimum fungicidal concentration, pooled dermatophytes; type: cell-based, E. floccosum, T. rubrum, T. mentagrophytes
Procedure: (§6) Minimum fungicidal concentration (MFC): The minimum fungicidal concentrations of various agents were determined using the technique described by Canton et al. (Antimicrob Agents Chemother. 2004 8:2477-82). In that method, fungal conidia were collected following growth on potato dextrose agar (PDA) plates and were used to inoculate 96-well plates containing different concentrations of agents. Following incubation at 35° C. for 4 days (for dermatophytes) or 24 hours (for yeast), wells showing no visible growth were cultured to determine the MFC (defined as the lowest concentration of a given agent that kills>99.999% of fungal conidia or spores). The MFC value represents the level of the agent at which spores or conidia were killed.
as §4

E. floccosum [5] = experiment: Minimum fungicidal concentration (Canton et al.); type: cell-based, Epidermophyton floccosum; settings: Epidermophyton floccosum
Procedure: as §6

S. epidermidis = experiment: MIC, CLSI M7-A7, Mueller-Hinton; type: cell-based; settings: for MIC: read-out: MIC
Procedure: as §1, §3

C. albicans = experiment: MIC, CLSI M27-A2; type: cell-based, Candida albicans
Procedure: as §1, §5

[6] = Staphylococcus aureus, S. aureus
[7] = Epidermophyton floccosum, E. floccosum, n = 6
[8] = Trichophyton rubrum, T. rubrum, n = 6
[9] = Staphylococcus epidermidis, S. epidermidis, n = 6
[10] = Candida albicans, C. albicans, n = 6

In the case of `Clc1ccc(COC(Cn2ccnc2)c2ccc(Cl)cc2Cl)c(Cl)c1` (centres unmarked) [Miconazole, miconazole], the “MIC Range” value (T. mentagrophytes; T. mentagrophytes, n = 6) is reported as 0.015 to 0.25 µg/mL, the MIC (T. mentagrophytes; T. mentagrophytes strain 1720) is reported as 0.03 µg/mL (≈ 0.0721 µM) and the MIC (T. mentagrophytes; T. mentagrophytes strain 2124) is reported as 0.25 µg/mL (≈ 0.601 µM). The MIC (T. mentagrophytes; T. mentagrophytes strain 2125) was 0.25 µg/mL (≈ 0.601 µM), the MIC (T. mentagrophytes; T. mentagrophytes strain 2126) was 0.015 µg/mL (≈ 0.036 µM) and the MIC (T. mentagrophytes; T. mentagrophytes strain 2127) was 0.25 µg/mL (≈ 0.601 µM). It also gave an MIC (T. mentagrophytes; T. mentagrophytes strain 2128) of 0.125 µg/mL (≈ 0.3 µM), an MIC (S. aureus; S. aureus strain 733) of 2 µg/mL (≈ 4.81 µM) and an MIC (S. aureus; S. aureus strain 734) of 2 µg/mL (≈ 4.81 µM). The MIC (S. aureus; S. aureus strain 8470) was 2 µg/mL (≈ 4.81 µM), the “MIC Range” value (S. aureus; S. aureus, n = 6) was 2 µg/mL (≈ 4.81 µM) and the MIC50 (S. aureus; [6]) was 2 µg/mL (≈ 4.81 µM). The MIC90 (S. aureus; [6]) was 2 µg/mL (≈ 4.81 µM), the MIC (S. aureus; Staphylococcus aureus, S. aureus strain 730, 80% inhibition, 16 h, read-out: MIC) was 2 µg/mL (≈ 4.81 µM) and the MIC (S. aureus; Staphylococcus aureus, S. aureus strain 732, read-out: MIC) was 2 µg/mL (≈ 4.81 µM). The “MIC Range” value (E. floccosum [1]; E. floccosum, n = 6) was 0.06 to 0.125 µg/mL, the MIC (E. floccosum [1]; Epidermophyton floccosum, E. floccosum strain 1666) was 0.125 µg/mL (≈ 0.3 µM) and the MIC (E. floccosum [1]; Epidermophyton floccosum, E. floccosum strain 1798) was 0.125 µg/mL (≈ 0.3 µM). It also gave an MIC (E. floccosum [1]; Epidermophyton floccosum, E. floccosum strain 1925) of 0.06 µg/mL (≈ 0.144 µM), an MIC (E. floccosum [1]; Epidermophyton floccosum, E. floccosum strain 1926) of 0.125 µg/mL (≈ 0.3 µM) and an MIC (E. floccosum [1]; Epidermophyton floccosum, E. floccosum strain 1961) of 0.125 µg/mL (≈ 0.3 µM). The MIC (E. floccosum [1]; Epidermophyton floccosum, E. floccosum strain 2165) was 0.125 µg/mL (≈ 0.3 µM), the MIC50 (E. floccosum [1]; [7]) was 0.125 µg/mL (≈ 0.3 µM) and the MIC90 (E. floccosum [1]; [7]) was 0.125 µg/mL (≈ 0.3 µM). The MIC50 ([2]; Staphylococcus) was 1 µg/mL (≈ 2.4 µM), the MIC90 ([2]; Staphylococcus) was 2 µg/mL (≈ 4.81 µM) and the “MIC Range” value [2] was 0.5 to 2 µg/mL. The “MIC Range” value (T. rubrum; T. rubrum, n = 6) was 0.125 to 0.25 µg/mL, the MIC (T. rubrum; Trichophyton rubrum, T. rubrum strain 1967) was 0.125 µg/mL (≈ 0.3 µM) and the MIC (T. rubrum; Trichophyton rubrum, T. rubrum strain 2098) was 0.125 µg/mL (≈ 0.3 µM). It also gave an MIC (T. rubrum; Trichophyton rubrum, T. rubrum strain 2246) of 0.125 µg/mL (≈ 0.3 µM), an MIC (T. rubrum; Trichophyton rubrum, T. rubrum strain 8063) of 0.125 µg/mL (≈ 0.3 µM) and an MIC (T. rubrum; Trichophyton rubrum, T. rubrum strain 8071) of 0.25 µg/mL (≈ 0.601 µM). It also gave an MIC (T. rubrum; Trichophyton rubrum, T. rubrum strain 8092) of 0.25 µg/mL (≈ 0.601 µM), an MIC50 (T. rubrum; [8]) of 0.125 µg/mL (≈ 0.3 µM) and an MIC90 (T. rubrum; [8]) of 0.25 µg/mL (≈ 0.601 µM). For the same molecule, the MIC50 (All dermatophytes [3]) was 0.125 µg/mL (≈ 0.3 µM), the MIC90 (All dermatophytes [3]) was 0.25 µg/mL (≈ 0.601 µM) and the “MIC Range” value (All dermatophytes [3]) was 0.015 to 0.25 µg/mL. The MIC50 (All yeasts) was 4 µg/mL (≈ 9.61 µM), the MIC90 (All yeasts) was over 16 µg/mL and the MIC (C. parapsilosis; C. parapsilosis strain 7629) was 4 µg/mL (≈ 9.61 µM). The MIC (C. parapsilosis; C. parapsilosis strain 7668) was 16 µg/mL (≈ 38.4 µM), the MIC (C. parapsilosis; C. parapsilosis strain 7672) was 8 µg/mL (≈ 19.2 µM) and the MIC (C. parapsilosis; C. parapsilosis strain 7995) was 4 µg/mL (≈ 9.61 µM). For the same molecule, the MIC (C. parapsilosis; C. parapsilosis strain 8148) was over 16 µg/mL, the MIC (C. parapsilosis; C. parapsilosis strain 8442) was 4 µg/mL (≈ 9.61 µM) and the MIC50 (C. parapsilosis; C. parapsilosis, n = 6) was 4 µg/mL (≈ 9.61 µM). It also gave an MIC90 (C. parapsilosis; C. parapsilosis, n = 6) of 16 µg/mL (≈ 38.4 µM), an MFC (All dermatophytes [4]; All dermatophytes, n = 18, read-out: MFC, row MIC50) of 8 µg/mL (≈ 19.2 µM) and an MFC (All dermatophytes [4]; All dermatophytes, n = 18, read-out: MFC, row MIC90) of over 8 µg/mL. It also gave an MFC (All dermatophytes [4]; all T. mentagrophytes isolates and the majority of T. rubrum and E. floccosum isolates, read-out: MFC) of at least 8 µg/mL, an MFC (E. floccosum [5]; E. floccosum strain 1666, read-out: MFC) of 2 µg/mL (≈ 4.81 µM) and an MFC (E. floccosum [5]; E. floccosum strain 1798, read-out: MFC) of 0.5 µg/mL (≈ 1.2 µM). It also gave an MFC (E. floccosum [5]; E. floccosum strain 1925, read-out: MFC) of 8 µg/mL (≈ 19.2 µM), an MFC (E. floccosum [5]; E. floccosum strain 1926, read-out: MFC) of over 8 µg/mL and an MFC (E. floccosum [5]; E. floccosum strain 1961, read-out: MFC) of over 8 µg/mL. For the same molecule, the MFC (E. floccosum [5]; E. floccosum strain 2165, read-out: MFC) was over 8 µg/mL, the MFC (E. floccosum [5]; E. floccosum, n = 6, read-out: MFC, row MIC50) was 8 µg/mL (≈ 19.2 µM) and the MFC (E. floccosum [5]; E. floccosum, n = 6, read-out: MFC, row MIC90) was over 8 µg/mL. The “MIC Range” value (S. epidermidis; S. epidermidis, n = 6) was 0.5 to 1 µg/mL, the MIC (S. epidermidis; Staphylococcus epidermidis, S. epidermidis strain 8472) was 0.5 µg/mL (≈ 1.2 µM) and the MIC (S. epidermidis; Staphylococcus epidermidis, S. epidermidis strain 8473) was 1 µg/mL (≈ 2.4 µM). The MIC (S. epidermidis; Staphylococcus epidermidis, S. epidermidis strain 8474) was 0.5 µg/mL (≈ 1.2 µM), the MIC (S. epidermidis; Staphylococcus epidermidis, S. epidermidis strain 8475) was 1 µg/mL (≈ 2.4 µM) and the MIC (S. epidermidis; Staphylococcus epidermidis, S. epidermidis strain 8476) was 1 µg/mL (≈ 2.4 µM). The MIC (S. epidermidis; Staphylococcus epidermidis, S. epidermidis strain 8477) was 1 µg/mL (≈ 2.4 µM), the MIC50 (S. epidermidis; [9]) was 1 µg/mL (≈ 2.4 µM) and the MIC90 (S. epidermidis; [9]) was 1 µg/mL (≈ 2.4 µM). The MIC (C. albicans; C. albicans strain 8280 (multi-resistant)) was over 16 µg/mL, the MIC (C. albicans; Candida albicans, 24 h, C. albicans strain 1740, 50% inhibition, 24 hours, read-out: MIC) was 1 µg/mL (≈ 2.4 µM) and the MIC (C. albicans; Candida albicans, C. albicans strain 2108, read-out: MIC) was 2 µg/mL (≈ 4.81 µM). The MIC (C. albicans; Candida albicans, C. albicans strain 2153, read-out: MIC) was 1 µg/mL (≈ 2.4 µM), the MIC (C. albicans; Candida albicans, C. albicans strain 8280 (multi-resistant), read-out: MIC) was over 16 µg/mL and the MIC (C. albicans; Candida albicans, C. albicans strain 8283, read-out: MIC) was 16 µg/mL (≈ 38.4 µM). For the same molecule, the MIC (C. albicans; Candida albicans, C. albicans strain 8364, read-out: MIC) was 2 µg/mL (≈ 4.81 µM), the MIC (C. albicans; Candida albicans, C. albicans, another isolate, read-out: MIC) was 16 µg/mL (≈ 38.4 µM) and the MIC (C. albicans; Candida albicans, C. albicans, four isolates, read-out: MIC) was 1 to 2 µg/mL (≈ 2.4 to 4.81 µM). For the same molecule, the MIC50 (C. albicans; [10]) was 2 µg/mL (≈ 4.81 µM) and the MIC90 (C. albicans; [10]) was 16 µg/mL (≈ 38.4 µM).
